These results are taken from PMC4795001 (Chemical communications (Cambridge, England), 2015).

Where two headings read alike, the source gives them in different places.

In experiment [1] the target is T1, holo-TycB1 (recombinant) (Brevibacillus parabrevis, UniProt O30408).
T1 sequence (O30408 1-1080 limits assumed): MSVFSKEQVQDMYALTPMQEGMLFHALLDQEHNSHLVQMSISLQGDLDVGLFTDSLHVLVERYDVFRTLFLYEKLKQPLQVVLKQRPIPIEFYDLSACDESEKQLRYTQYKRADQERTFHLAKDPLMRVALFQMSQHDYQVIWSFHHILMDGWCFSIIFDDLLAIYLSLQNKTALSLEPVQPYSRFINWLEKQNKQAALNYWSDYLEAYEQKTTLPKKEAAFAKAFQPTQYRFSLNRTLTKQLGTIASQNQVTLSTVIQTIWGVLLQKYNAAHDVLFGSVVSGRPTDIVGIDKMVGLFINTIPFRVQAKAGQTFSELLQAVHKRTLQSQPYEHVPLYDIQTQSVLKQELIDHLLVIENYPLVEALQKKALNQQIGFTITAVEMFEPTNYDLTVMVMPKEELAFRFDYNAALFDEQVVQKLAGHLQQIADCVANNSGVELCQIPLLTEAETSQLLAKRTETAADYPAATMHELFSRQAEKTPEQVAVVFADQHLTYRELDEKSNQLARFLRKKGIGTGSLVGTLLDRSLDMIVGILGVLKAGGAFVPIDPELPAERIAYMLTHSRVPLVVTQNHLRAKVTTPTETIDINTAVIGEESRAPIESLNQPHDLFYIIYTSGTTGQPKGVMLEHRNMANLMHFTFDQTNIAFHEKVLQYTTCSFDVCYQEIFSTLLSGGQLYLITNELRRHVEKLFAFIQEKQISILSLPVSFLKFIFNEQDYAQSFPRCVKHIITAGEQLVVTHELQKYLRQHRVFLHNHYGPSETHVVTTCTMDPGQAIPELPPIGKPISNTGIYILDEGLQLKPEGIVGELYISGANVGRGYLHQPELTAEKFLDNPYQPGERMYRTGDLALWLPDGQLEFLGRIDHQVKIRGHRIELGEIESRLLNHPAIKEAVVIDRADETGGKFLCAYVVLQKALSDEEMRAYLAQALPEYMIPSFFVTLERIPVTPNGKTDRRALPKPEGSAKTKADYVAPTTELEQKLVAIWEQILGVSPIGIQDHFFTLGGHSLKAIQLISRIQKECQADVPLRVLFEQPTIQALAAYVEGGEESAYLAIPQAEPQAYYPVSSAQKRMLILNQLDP
As to the kind of experiment: coupled hydroxamate-MesG continuous spectrophotometric assay. It is filed as biochemical.

For experiment [2], the target named is T2, holo-GrsA (recombinant) (Aneurinibacillus migulanus, UniProt P0C061).
T2 sequence (P0C061 1-1098): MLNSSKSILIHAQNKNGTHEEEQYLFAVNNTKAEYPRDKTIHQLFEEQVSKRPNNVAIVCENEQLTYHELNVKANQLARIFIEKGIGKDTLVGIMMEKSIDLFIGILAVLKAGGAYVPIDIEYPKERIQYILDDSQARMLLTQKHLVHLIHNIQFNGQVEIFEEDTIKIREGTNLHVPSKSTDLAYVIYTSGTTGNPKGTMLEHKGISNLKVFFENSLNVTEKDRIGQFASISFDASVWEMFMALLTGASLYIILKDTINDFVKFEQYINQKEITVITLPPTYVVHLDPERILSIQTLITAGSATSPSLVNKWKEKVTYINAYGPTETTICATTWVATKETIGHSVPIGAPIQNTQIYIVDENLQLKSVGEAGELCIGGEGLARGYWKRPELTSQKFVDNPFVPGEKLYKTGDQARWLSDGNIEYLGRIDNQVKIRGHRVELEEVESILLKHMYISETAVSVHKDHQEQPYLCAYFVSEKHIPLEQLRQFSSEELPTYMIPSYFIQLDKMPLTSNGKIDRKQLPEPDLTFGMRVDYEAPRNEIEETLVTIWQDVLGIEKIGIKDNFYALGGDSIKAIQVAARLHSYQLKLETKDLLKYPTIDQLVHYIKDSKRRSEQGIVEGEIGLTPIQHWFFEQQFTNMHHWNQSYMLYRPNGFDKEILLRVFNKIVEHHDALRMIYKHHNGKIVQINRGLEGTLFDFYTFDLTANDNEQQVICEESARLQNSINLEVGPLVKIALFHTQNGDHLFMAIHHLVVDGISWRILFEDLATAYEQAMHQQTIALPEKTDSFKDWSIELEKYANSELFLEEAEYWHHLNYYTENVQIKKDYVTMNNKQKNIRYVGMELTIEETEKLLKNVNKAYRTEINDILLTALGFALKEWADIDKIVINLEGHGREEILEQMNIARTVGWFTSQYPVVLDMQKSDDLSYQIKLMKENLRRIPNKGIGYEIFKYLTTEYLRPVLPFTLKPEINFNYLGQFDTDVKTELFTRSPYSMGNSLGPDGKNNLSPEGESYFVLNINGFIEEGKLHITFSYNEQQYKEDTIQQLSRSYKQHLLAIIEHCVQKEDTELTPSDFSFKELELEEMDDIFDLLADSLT
The experiment is described as above. It is filed as biochemical. The following applies: read-out: Ki^app; tight-binding; A domain active site.

Regarding `Nc1ncnc2c1ncn2[C@@H]1O[C@H](COS(=O)(=O)NC(=O)[C@@H]2CCCN2)[C@@H](O)[C@H]1O` [compound 5, L-Pro-AMS], the Ki in experiment [1] is 431 ± 42 nM.
Turning to L-Phe-AMS-BPyne [compound 1], the Ki in experiment [2] is 1.43 ± 0.19 nM.
Regarding L-Pro-AMS-BPyne [compound 2], the Ki in experiment [1] (read-out: Ki^app, tight-binding, A domain active site) was determined as 327 ± 17 nM.
